In PubChem BioAssay AID743319 (Broad Institute, 2014):
The source made the active and inactive calls.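 How the source made its calls: active means fitted curve reaches 200% activation at or below the highest valid dose tested for that compound; inconclusive means flat fit between 30 and 70% activation, or unreliable fit; inactive means the rest.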

target: Endoplasmic reticulum aminopeptidase 2 (Homo sapiens) (UniProt Q6P179); assay: ERAP2 activation by compounds, dose response, selectivity assay for selective ERAP1 modulator project, biochemical, fluorescence plate reader, cherry-picked samples (AID 743319); conditions: recombinant ERAP2, Arg-AMC cleavage fluorescence, 1 h; at 10 µM (top of the series)
Sequence (Q6P179 whole entry, looked up): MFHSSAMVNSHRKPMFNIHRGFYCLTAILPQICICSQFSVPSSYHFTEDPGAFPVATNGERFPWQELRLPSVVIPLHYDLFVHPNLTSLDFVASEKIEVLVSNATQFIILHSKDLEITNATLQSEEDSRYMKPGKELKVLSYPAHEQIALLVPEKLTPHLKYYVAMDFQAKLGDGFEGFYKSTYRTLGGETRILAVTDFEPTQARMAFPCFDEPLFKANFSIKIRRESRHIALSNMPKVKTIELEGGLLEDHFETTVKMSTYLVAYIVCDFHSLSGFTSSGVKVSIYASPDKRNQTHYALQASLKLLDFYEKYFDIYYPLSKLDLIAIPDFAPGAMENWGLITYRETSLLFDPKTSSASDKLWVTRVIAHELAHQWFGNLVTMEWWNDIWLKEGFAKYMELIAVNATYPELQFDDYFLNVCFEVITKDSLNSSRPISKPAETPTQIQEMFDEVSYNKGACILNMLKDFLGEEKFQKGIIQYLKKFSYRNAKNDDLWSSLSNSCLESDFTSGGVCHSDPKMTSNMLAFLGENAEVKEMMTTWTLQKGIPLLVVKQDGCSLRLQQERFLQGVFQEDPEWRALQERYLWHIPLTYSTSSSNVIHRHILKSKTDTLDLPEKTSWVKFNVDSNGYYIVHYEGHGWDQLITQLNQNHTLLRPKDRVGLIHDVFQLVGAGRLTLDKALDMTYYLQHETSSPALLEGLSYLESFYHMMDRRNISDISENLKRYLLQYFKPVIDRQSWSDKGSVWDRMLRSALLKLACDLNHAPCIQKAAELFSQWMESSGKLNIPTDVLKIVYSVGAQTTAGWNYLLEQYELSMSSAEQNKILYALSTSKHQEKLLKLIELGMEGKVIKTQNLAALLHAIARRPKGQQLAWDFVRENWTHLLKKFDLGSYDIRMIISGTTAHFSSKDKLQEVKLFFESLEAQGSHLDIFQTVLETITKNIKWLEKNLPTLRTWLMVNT

Row | activation | SMILES
1 | 11.2% (inactive) | Cc1noc(C)c1S(=O)(=O)Nc1ccc2c(c1)C(=O)N([C@H](C)CO)C[C@H](C)[C@H](CN(C)Cc1ccc3c(c1)OCO3)OCCCC[C@@H](C)O2

same assay, conditions: recombinant ERAP2, Arg-AMC cleavage fluorescence, 1 h; at 11 µM (top of the series)

Row | SMILES | activation
2 | NC(=NCCc1c[nH]c2ccccc12)NS(=O)(=O)c1cc(F)ccc1F | 9.24% (inactive)
3 | COc1ccc(CN(C)C[C@H]2OCCCC[C@@H](C)Oc3ccc(NS(=O)(=O)c4cccs4)cc3C(=O)N([C@@H](C)CO)C[C@@H]2C)cc1 | 10.1% (inactive)
4 | COc1ccc2c3c([nH]c2c1)[C@H](CO)N(Cc1cc(F)ccc1F)CC31CN(C)C1 | 11.2% (inactive)
5 | Cc1ccccc1-c1ccc2c(c1)O[C@@H](CN(C)Cc1ccc(C(=O)O)cc1)[C@@H](C)CN([C@H](C)CO)S2(=O)=O | 8.67% (inactive)
6 | CCCNC(=O)C[C@@H]1CC[C@@H]2[C@H](COC[C@H](O)CN2C(=O)Nc2cccc(Cl)c2)O1 | 22.2% (inactive)
7 | CCC(=O)N(C)C[C@H]1Oc2ncc(C#Cc3ccncc3)cc2C(=O)N([C@H](C)CO)C[C@H]1C | -5.99% (inactive)
8 | O=C(C[C@@H]1CC[C@@H]2[C@H](COC[C@H](O)CN2C(=O)Nc2cccc(Cl)c2)O1)N1CCCCC1 | 2.69% (inactive)
9 | COc1ccc(CN(C)C[C@@H]2OCCCC[C@@H](C)Oc3ccc(NS(=O)(=O)c4cccs4)cc3C(=O)N([C@@H](C)CO)C[C@H]2C)cc1 | -1.25% (inactive)
10 | CCC(=O)N(C)C[C@@H]1Oc2ncc(C#Cc3ccncc3)cc2C(=O)N([C@@H](C)CO)C[C@@H]1C | -17.3% (inactive)
11 | CCn1cc(CN2CCCC(C(=O)Nc3ccc(-c4nc5ccccc5[nH]4)cc3)C2)c(C)n1 (stereo not drawn) | 4.78% (inactive)
12 | O=C(C[C@H]1CC[C@@H]2[C@H](COC[C@@H](O)CN2C(=O)Nc2cccc(Cl)c2)O1)N1CCCCC1 | 32.4% (inactive)
13 | O=C(Nc1ccc(C(F)(F)F)cc1)N1[C@@H]2CNC[C@H]1C2c1ccc(-c2ccncc2)cc1 (stereo partly drawn) | 1.51% (inactive)
14 | CC(=O)N1CCN(C(=O)C2(NC(=O)Nc3ccc(C)cc3)CCCCC2)CC1 | 2.05% (inactive)
15 | Cc1ccccc1-c1ccc2c(c1)O[C@@H](CN(C)Cc1ccc(C(=O)O)cc1)[C@@H](C)CN([C@@H](C)CO)S2(=O)=O | 0.523% (inactive)
16 | COc1ccc(C(=O)O)cc1S(=O)(=O)Nc1cc(C(F)(F)F)ccc1N1CCCCC1 | 8.35% (inactive)
17 | COc1cccc(S(=O)(=O)N(C)C[C@@H]2Oc3ncccc3C(=O)N([C@H](C)CO)C[C@@H]2C)c1 | 4.98% (inactive)

The next lines start with the values.

Row | activation | SMILES
18 | 1.03% (inactive) | C[C@@H]1CCCCO[C@@H](CN(C)Cc2ccc3c(c2)OCO3)[C@@H](C)CN([C@H](C)CO)C(=O)c2cc(NS(=O)(=O)c3cccs3)ccc2O1
19 | -0.254% (inactive) | C[C@H](CO)N1C[C@H](C)[C@H](CN(C)CC2CCCCC2)Oc2c(NC(=O)Nc3ccc4c(c3)OCO4)cccc2C1=O
20 | 18.4% (inactive) | Cc1noc(C)c1NC(=O)N(C)C[C@@H]1Oc2c(NC(=O)Nc3ccc(F)cc3)cccc2C(=O)N([C@H](C)CO)C[C@@H]1C
21 | 9.01% (inactive) | C[C@@H]1CCCCO[C@@H](CN(C)S(C)(=O)=O)[C@@H](C)CN([C@@H](C)CO)C(=O)c2cc(NS(=O)(=O)c3ccc(Cl)cc3)ccc2O1
22 | 14.7% (inactive) | C[C@@H]1CCCCO[C@@H](CN(C)CC2CC2)[C@@H](C)CN([C@H](C)CO)C(=O)c2cc(NS(=O)(=O)c3cccs3)ccc2O1
23 | -20.2% (inactive) | C[C@H](CO)N1C[C@H](C)[C@@H](CN(C)CC2CC2)Oc2c(NC(=O)Nc3ccc(C(F)(F)F)cc3)cccc2C1=O
24 | 2.17% (inactive) | C[C@@H]1CCCCO[C@@H](CN(C)C)[C@@H](C)CN([C@@H](C)CO)C(=O)c2cc(NS(=O)(=O)c3ccc(Cl)cc3)ccc2O1
25 | 1.24% (inactive) | C[C@@H]1CN([C@H](C)CO)C(=O)c2cc(NC(=O)Nc3ccc(F)cc3)ccc2O[C@H]1CN(C)Cc1ccc(C(=O)O)cc1
26 | 10.9% (inactive) | COc1ccc(CN(C)C[C@@H]2OCCCC[C@@H](C)Oc3ccc(NS(=O)(=O)c4cccs4)cc3C(=O)N([C@H](C)CO)C[C@@H]2C)cc1
27 | 12.8% (inactive) | C[C@H]1CN([C@@H](C)CO)C(=O)c2cccc(NC(=O)Nc3ccc4c(c3)OCO4)c2O[C@@H]1CN(C)CC1CC1
28 | -2.75% (inactive) | Cc1noc(C)c1NC(=O)Nc1ccc2c(c1)C(=O)N([C@H](C)CO)C[C@@H](C)[C@@H](CN(C)Cc1ccc(C(F)(F)F)cc1)OCCCC[C@@H](C)O2
29 | 22.4% (inactive) | C[C@@H]1CCCCO[C@H](CN(C)Cc2ccccc2)[C@H](C)CN([C@H](C)CO)C(=O)c2cc(NS(=O)(=O)c3ccccc3)ccc2O1
30 | 20.4% (inactive) | COc1ccc(CN(C)C[C@@H]2OCCCC[C@H](C)Oc3ccc(NS(=O)(=O)c4cccs4)cc3C(=O)N([C@@H](C)CO)C[C@@H]2C)cc1
31 | 1.54% (inactive) | CNC[C@H]1OCCCC[C@@H](C)Oc2ccc(NS(=O)(=O)c3ccc(C)cc3)cc2C(=O)N([C@@H](C)CO)C[C@H]1C
32 | 4.68% (inactive) | C[C@H](CO)N1C[C@H](C)[C@H](CN(C)Cc2ccncc2)Oc2c(NC(=O)Nc3ccc(C(F)(F)F)cc3)cccc2C1=O
33 | 22.8% (inactive) | C[C@H](CO)N1C[C@H](C)[C@H](CN(C)Cc2ccc(C(=O)O)cc2)Oc2c(NC(=O)Nc3ccccc3)cccc2C1=O
34 | 2.96% (inactive) | COc1ccc(NC(=O)Nc2ccc3c(c2)C(=O)N([C@H](C)CO)C[C@@H](C)[C@@H](CN(C)Cc2ccc(C(=O)O)cc2)OCCCC[C@@H](C)O3)cc1
35 | 10.8% (inactive) | CCCN(C)C[C@@H]1OCCCC[C@H](C)Oc2ccc(NC(=O)Nc3ccc(F)cc3)cc2C(=O)N([C@H](C)CO)C[C@@H]1C
36 | 12.1% (inactive) | C[C@@H]1CCCCO[C@@H](CN(C)CC2CCCCC2)[C@H](C)CN([C@@H](C)CO)C(=O)c2cc(NC(=O)Nc3ccccc3)ccc2O1
37 | 18.4% (inactive) | C[C@@H]1CCCCO[C@@H](CN(C)CC2CC2)[C@@H](C)CN([C@H](C)CO)C(=O)c2cc(NS(=O)(=O)c3ccc(Cl)cc3)ccc2O1
38 | 16.7% (inactive) | C[C@@H]1CCCCO[C@H](CN(C)C)[C@H](C)CN([C@H](C)CO)C(=O)c2cc(NS(=O)(=O)c3ccc(Cl)cc3)ccc2O1
